What was measured:
SF-268 = experiment: NCI DTP cell line screen (SRB), CNS Cancer; assay type: cell-based
Description: (§1) Screening of compounds 70 and 71 against several cancer cell lines The human tumor cell lines of the cancer screening panel are grown in RPMI 1640 medium containing 5% fetal bovine serum and 2 mM L-glutamine. For a typical screening experiment, cells are inoculated into 96 well microtiter plates in 100 μL at plating densities ranging from 5,000 to 40,000 cells/well depending on the doubling time of individual cell lines. After cell inoculation, the microtiter plates are incubated at 37° C., 5% CO2, 95% air and 100% relative humidity for 24 h prior to addition of experimental drugs.
(§2) After 24 h, two plates of each cell line are fixed in situ with TCA, to represent a measurement of the cell population for each cell line at the time of drug addition (Tz). Experimental drugs are solubilized in dimethyl sulfoxide at 400-fold the desired final maximum test concentration and stored frozen prior to use. At the time of drug addition, an aliquot of frozen concentrate is thawed and diluted to twice the desired final maximum test concentration with complete medium containing 50 μg/ml gentamicin. Additional four, 10-fold or ½ log serial dilutions are made to provide a total of five drug concentrations plus control. Aliquots of 100 μl of these different drug dilutions are added to the appropriate microtiter wells already containing 100 μl of medium, resulting in the required final drug concentrations.
(§3) Following drug addition, the plates are incubated for an additional 48 h at 37° C., 5% CO2, 95% air, and 100% relative humidity. For adherent cells, the assay is terminated by the addition of cold TCA. Cells are fixed in situ by the gentle addition of 50 μl of cold 50% (w/v) TCA (final concentration, 10% TCA) and incubated for 60 minutes at 4° C. The supernatant is discarded, and the plates are washed five times with tap water and air dried. Sulforhodamine B (SRB) solution (100 μl) at 0.4% (w/v) in 1% acetic acid is added to each well, and plates are incubated for 10 minutes at room temperature. After staining, unbound dye is removed by washing five times with 1% acetic acid and the plates are air dried. Bound stain is subsequently solubilized with 10 mM trizma base, and the absorbance is read on an automated plate reader at a wavelength of 515 nm. For suspension cells, the methodology is the same except that the assay is terminated by fixing settled cells at the bottom of the wells by gently adding 50 μl of 80% TCA (final concentration, 16% TCA). Using the seven absorbance measurements [time zero, (Tz), control growth, (C), and test growth in the presence of drug at the five concentration levels (Ti)], the percentage growth is calculated at each of the drug concentrations levels. Percentage growth inhibition is calculated as: [(Ti−Tz)/(C−Tz)]×100 for concentrations for which Ti>/=Tz [(Ti−Tz)/Tz]×100 for concentrations for which Ti<Tz
(§4) Three dose response parameters are calculated for each experimental agent. […] The drug concentration resulting in total growth inhibition (TGI) is calculated from Ti=Tz. […] Values are calculated for each of these three parameters if the level of activity is reached; however, if the effect is not reached or is exceeded, the value for that parameter is expressed as greater or less than the maximum or minimum concentration tested.
(§5) The methods described were used to test compounds 70 and 71 on a panel of sixty cell lines under a screening service provided by the Developmental Therapeutics Program at the National Institutes of Health. Shown in FIG. 1C are 1, RPMI-8226 leukemia cells; 2; NCI-H322M non-small cell lung cancer cells; 3, HT29 colon cancer cells; 4, U251 CNS cancer cells; 5, SK-MEL-28 melanoma cancer cells; 6, SK-OV-3 ovarian cancer cells; 7, RXF 393 renal cancer cells; 8, PC-3 prostate cancer cells; 9, MDA-MB-231 breast cancer cells.

SNB-19 = experiment: NCI DTP cell line screen (SRB), CNS Cancer; assay type: cell-based, human
Description: as §1, §2, §3, §4, §5

U251 = experiment: NCI DTP cell line screen (SRB), CNS Cancer; assay type: cell-based, human
Description: as §1, §2, §3, §4, §5

NCI-H226 = experiment: NCI DTP cell line screen (SRB), Non-Small Cell Lung Cancer; assay type: cell-based, human
Description: as §1, §2, §3, §4, §5

For `NCC(=O)Nc1ccc(-n2nc(C(F)(F)F)cc2-c2ccc3c(ccc4ccccc43)c2)cc1` [Compound 70, 2-Amino-N-{4-[5-(2-phenanthrenyl)-3-(trifluoromethyl)-1H-pyrazol-1-yl]-phenyl}-acetamide], the TGI (SF-268) was 4.16E−06, the “Percent Growth” value (SF-268; Log10 Concentration −4.0) was 26% and the “Percent Growth” value (SF-268; Log10 Concentration −5.0) was −33%. For the same molecule, the “Percent Growth” value (SF-268; Log10 Concentration −6.0) was 54%, the “Percent Growth” value (SF-268; Log10 Concentration −7.0) was 72% and the “Percent Growth” value (SF-268; Log10 Concentration −8.0) was 84%. For the same molecule, the TGI (SNB-19) was 3.15E−06, the “Percent Growth” value (SNB-19; Log10 Concentration −4.0) was −39% and the “Percent Growth” value (SNB-19; Log10 Concentration −5.0) was −59%. The “Percent Growth” value (SNB-19; Log10 Concentration −6.0) was 59%, the “Percent Growth” value (SNB-19; Log10 Concentration −7.0) was 94% and the “Percent Growth” value (SNB-19; Log10 Concentration −8.0) was 87%. The TGI (U251) was 2.64E−06, the “Percent Growth” value (U251; Log10 Concentration −4.0) was −18% and the “Percent Growth” value (U251; Log10 Concentration −5.0) was −63%. For the same molecule, the “Percent Growth” value (U251; Log10 Concentration −6.0) was 46%, the “Percent Growth” value (U251; Log10 Concentration −7.0) was 82% and the “Percent Growth” value (U251; Log10 Concentration −8.0) was 100%. For the same molecule, the “Percent Growth” value (NCI-H226; Log10 Concentration −4.0) was −48%, the “Percent Growth” value (NCI-H226; Log10 Concentration −5.0) was −58% and the “Percent Growth” value (NCI-H226; Log10 Concentration −6.0) was 59%. For the same molecule, the “Percent Growth” value (NCI-H226; Log10 Concentration −7.0) was 98%, the “Percent Growth” value (NCI-H226; Log10 Concentration −8.0) was 100% and the TGI (NCI-H226; in M (unit assumed)) was 3.21E−06.

Reference: patent US8541460B2, “PDK-1/Akt signaling inhibitors” (The Ohio State University, priority 2003, dated 2013)
